Data: patent US20250171457A1, “NITROGEN-CONTAINING HETEROCYCLIC COMPOUND HAVING NRF2 ACTIVATION EFFECT” (CHUGAI SEIYAKU KABUSHIKI KAISHA, priority 2022, published 2025)

The compounds below were run on Nrf2 transcriptional activity (pARE-Luc reporter) in HepG2 cells (assay: In vitro Nrf2 transcriptional activity measurement by ARE-dependent reporter assay in HepG2 cell). Conditions: Homo sapiens; HepG2 cells transfected with pARE-Luc, 4 hours at 37° C.; luciferase activity of Example 1-54 or Example 17-23 at 3.75 μM defined as 100%.
Format: cell-based, human
Method in brief: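 Luminescence readout (Bright-Glo) after 4 h, 37° C compound exposure of HepG2 cells carrying the ARE-luciferase vector pGL4.37. Each well converted to % response versus reference compound at 3.75 μM, and EC50 derived from dose-response curves.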

Structure (SMILES)	EC50 [nM]
O=C(O)c1cc(F)c(-c2cccc3c2OCN(C(=O)c2c(Cl)cc(N4CC5(C4)CC(F)(F)C5)cc2Cl)C3)cc1N1C2CCC1COC2 [Compound 16-7, 4-[3-[2,6-Dichloro-4-(6,6-difluoro-2-azaspiro[3.3]heptan-2-yl)benzoyl]-2,4-dihydro-1,3-benzoxazin-8-yl]-5-fluoro-2-(3-oxa-8-azabicyclo[3.2.1]octan-8-yl)benzoic acid]	1.4
O=C(O)c1cc(F)c(-c2cccc3c2OCN(C(=O)c2c(Cl)cc(N4CC5(CC(F)C5)C4)cc2Cl)C3)cc1N1C2CCC1COC2 [Compound 16-8, 4-[3-[2,6-Dichloro-4-(6-fluoro-2-azaspiro[3.3]heptan-2-yl)benzoyl]-2,4-dihydro-1,3-benzoxazin-8-yl]-5-fluoro-2-(3-oxa-8-azabicyclo[3.2.1]octan-8-yl)benzoic acid]	3.9
Cn1nnc(-c2cc(Cl)c(C(=O)N3COc4c(cccc4-c4cc(N5C6CCC5COC6)c(C(=O)O)cc4F)C3)c(Cl)c2)n1 [Compound 16-9, 4-[3-[2,6-Dichloro-4-(2-methyltetrazol-5-yl)benzoyl]-2,4-dihydro-1,3-benzoxazin-8-yl]-5-fluoro-2-(3-oxa-8-azabicyclo[3.2.1]octan-8-yl)benzoic acid]	12
CC(C)Sc1cc(Cl)c(C(=O)N2COc3c(cccc3-c3ccc(C(=O)O)c(N4CCOCC4)c3)C2)c(Cl)c1 [Compound 16-10, 4-[3-(2,6-Dichloro-4-propan-2-ylsulfanylbenzoyl)-2,4-dihydro-1,3-benzoxazin-8-yl]-2-morpholin-4-ylbenzoic acid]	9.3
COCCN1CCC(c2cc(Cl)c(C(=O)N3COc4c(cccc4-c4cc(N5CCOCC5)c(C(=O)O)cc4F)C3)c(Cl)c2)CC1 [Compound 16-11, 4-[3-[2,6-Dichloro-4-[1-(2-methoxyethyl)piperidin-4-yl]benzoyl]-2,4-dihydro-1,3-benzoxazin-8-yl]-5-fluoro-2-morpholin-4-ylbenzoic acid]	7.5
O=C(O)c1cc(F)c(-c2cccc3c2OCN(C(=O)c2c(Cl)cc(C4COC4)cc2Cl)C3)cc1N1CCOCC1 [Compound 16-12, 4-[3-[2,6-Dichloro-4-(oxetan-3-yl)benzoyl]-2,4-dihydro-1,3-benzoxazin-8-yl]-5-fluoro-2-morpholin-4-ylbenzoic acid]	9.8
C[C@@H]1CN(C)CCN1c1cc(Cl)c(C(=O)N2COc3c(cccc3-c3cc(N(C)[C@@H]4CCOC4)c(C(=O)O)cc3F)C2)c(Cl)c1 [Compound 16-13, 4-[3-[2,6-Dichloro-4-[(2R)-2,4-dimethylpiperazin-1-yl]benzoyl]-2,4-dihydro-1,3-benzoxazin-8-yl]-5-fluoro-2-[methyl-[(3R)-oxolan-3-yl]amino]benzoic acid]	4.4
CN(c1cc(-c2cccc3c2OCN(C(=O)c2c(Cl)cc(-c4cnn(C)c4)cc2Cl)C3)c(F)cc1C(=O)O)C1(C)COC1 [Compound 16-14, 4-[3-[2,6-Dichloro-4-(1-methylpyrazol-4-yl)benzoyl]-2,4-dihydro-1,3-benzoxazin-8-yl]-5-fluoro-2-[methyl-(3-methyloxetan-3-yl)amino]benzoic acid]	6.8
O=C(O)c1cc(F)c(-c2cccc3c2OCN(C(=O)c2c(Cl)cc(N4CC5(COCCO5)C4)cc2Cl)C3)cc1N1C2CCC1COC2 [Compound 16-15, 4-[3-[2,6-Dichloro-4-(5,8-dioxa-2-azaspiro[3.5]nonan-2-yl)benzoyl]-2,4-dihydro-1,3-benzoxazin-8-yl]-5-fluoro-2-(3-oxa-8-azabicyclo[3.2.1]octan-8-yl)benzoic acid]	3
N#CC1(F)CN(c2cc(Cl)c(C(=O)N3COc4c(cccc4-c4cc(N5C6CCC5COC6)c(C(=O)O)cc4F)C3)c(Cl)c2)C1 [Compound 16-16, 4-[3-[2,6-Dichloro-4-(3-cyano-3-fluoroazetidin-1-yl)benzoyl]-2,4-dihydro-1,3-benzoxazin-8-yl]-5-fluoro-2-(3-oxa-8-azabicyclo[3.2.1]octan-8-yl)benzoic acid]	13
COCC(F)(F)CN1CC2(C1)CN(c1cc(Cl)c(C(=O)N3COc4c(cccc4-c4cc(N5C6CCC5COC6)c(C(=O)O)cc4F)C3)c(Cl)c1)C2 [Compound 16-17, 4-[3-[2,6-Dichloro-4-[6-(2,2-difluoro-3-methoxypropyl)-2,6-diazaspiro[3.3]heptan-2-yl]benzoyl]-2,4-dihydro-1,3-benzoxazin-8-yl]-5-fluoro-2-(3-oxa-8-azabicyclo[3.2.1]octan-8-yl)benzoic acid]	2.7
CC[C@@H](c1cccc2c1C(=O)NN(C(=O)c1c(Cl)cc(-c3cnn(C)c3)cc1Cl)C2)[C@H](C)C(=O)O [Compound 17-1, (2S,3R)-3-[2-[2,6-Dichloro-4-(1-methylpyrazol-4-yl)benzoyl]-4-oxo-1,3-dihydrophthalazin-5-yl]-2-methylpentanoic acid]	2.2
CC[C@@H](c1cccc2c1CON(C(=O)c1c(Cl)cc(-c3cnn(C)c3)cc1Cl)C2)[C@H](C)C(=O)O [Compound 17-2, (2S,3R)-3-[3-[2,6-Dichloro-4-(1-methylpyrazol-4-yl)benzoyl]-1,4-dihydro-2,3-benzoxazin-8-yl]-2-methylpentanoic acid]	7.7
CC[C@@H](c1cccc2c1OCN(C(=O)c1c(Cl)cc(-c3cnn(C)c3)cc1Cl)C2)[C@H](C)C(=O)O [Compound 17-3, (2S,3R)-3-[3-[2,6-Dichloro-4-(1-methylpyrazol-4-yl)benzoyl]-2,4-dihydro-1,3-benzoxazin-8-yl]-2-methylpentanoic acid]	9.7
CC[C@H](CC(=O)O)c1cccc2c1C(=O)NN(C(=O)c1c(Cl)cc(-c3cnn(C)c3)cc1Cl)C2 [Compound 17-4, (3R)-3-[2-[2,6-Dichloro-4-(1-methylpyrazol-4-yl)benzoyl]-4-oxo-1,3-dihydrophthalazin-5-yl]pentanoic acid]	10
CC[C@@H](c1cccc2c1C(=O)NN(C(=O)c1c(Cl)cc(-c3cnn(C)c3)cc1Cl)C2)[C@@H](C)C(=O)O [Compound 17-5, (2R,3R)-3-[2-[2,6-Dichloro-4-(1-methylpyrazol-4-yl)benzoyl]-4-oxo-1,3-dihydrophthalazin-5-yl]-2-methylpentanoic acid]	17
CC[C@@H](c1cccc2c1CCN(C(=O)c1c(Cl)cc(-c3cnn(C)c3)cc1Cl)C2)[C@H](C)C(=O)O [Compound 17-8, (2S,3R)-3-[2-[2,6-Dichloro-4-(1-methylpyrazol-4-yl)benzoyl]-3,4-dihydro-1H-isoquinolin-5-yl]-2-methylpentanoic acid]	20
CCC(CC(=O)O)c1cccc2c1C(=O)NN(C(=O)c1c(Cl)cc(-c3cnn(C)c3)cc1Cl)C2 (stereo not drawn) [Compound 17-9, 3-[2-[2,6-Dichloro-4-(1-methylpyrazol-4-yl)benzoyl]-4-oxo-1,3-dihydrophthalazin-5-yl]pentanoic acid]	21
CC[C@@H](c1cccc2c1CCN(C(=O)c1c(Br)cc(-c3cnn(C)c3)cc1Br)C2)[C@H](C)C(=O)O [Compound 17-10, (2S,3R)-3-[2-[2,6-Dibromo-4-(1-methylpyrazol-4-yl)benzoyl]-3,4-dihydro-1H-isoquinolin-5-yl]-2-methylpentanoic acid]	21
Cc1c(C(CC(=O)O)c2cccc3c2CCN(C(=O)c2c(Cl)cc(-c4cnn(C)c4)cc2Cl)C3)ccc2c1nnn2C (stereo not drawn) [Compound 17-15, 3-[2-[2,6-Dichloro-4-(1-methylpyrazol-4-yl)benzoyl]-3,4-dihydro-1H-isoquinolin-5-yl]-3-(1,4-dimethylbenzotriazol-5-yl)propanoic acid]	58
Cc1c(C(CC(=O)O)c2cccc3c2CON(C(=O)c2c(Cl)cc(-c4cnn(C)c4)cc2Cl)C3)ccc2c1nnn2C (stereo not drawn) [Compound 17-16, 3-[3-[2,6-Dichloro-4-(1-methylpyrazol-4-yl)benzoyl]-1,4-dihydro-2,3-benzoxazin-8-yl]-3-(1,4-dimethylbenzotriazol-5-yl)propanoic acid]	74
Cn1cc(-c2cc(Cl)c(C(=O)N3CCc4c(cccc4-c4ccc(C(=O)O)c(N5CCOCC5)c4)C3)c(Cl)c2)cn1 [Compound 17-18, 4-[2-[2,6-Dichloro-4-(1-methylpyrazol-4-yl)benzoyl]-3,4-dihydro-1H-isoquinolin-5-yl]-2-morpholin-4-ylbenzoic acid]	97
Cn1cc(-c2cc(Cl)c(C(=O)N3CSc4c(cccc4-c4ccc(C(=O)O)c(N5CCOCC5)c4)C3)c(Cl)c2)cn1 [Compound 17-21, 4-[3-[2,6-Dichloro-4-(1-methylpyrazol-4-yl)benzoyl]-2,4-dihydro-1,3-benzothiazin-8-yl]-2-morpholin-4-ylbenzoic acid]	22
COCCOc1cc(Cl)c(C(=O)N2CCc3c(cccc3[C@H](C)[C@H](C)C(=O)O)C2)c(Cl)c1 [Compound 17-23, (2S,3R)-3-[2-[2,6-Dichloro-4-(2-methoxyethoxy)benzoyl]-3,4-dihydro-1H-isoquinolin-5-yl]-2-methylbutanoic acid]	110
C=Cc1cc(C(=O)N2COc3c(cccc3-c3cc(N4CCOCC4)c(C(=O)O)cc3F)C2)c(Cl)cc1OC [Compound 18-1, 4-[3-(2-Chloro-5-ethenyl-4-methoxybenzoyl)-2,4-dihydro-1,3-benzoxazin-8-yl]-5-fluoro-2-morpholin-4-ylbenzoic acid]	4.1
COc1cc(Cl)c(C(=O)N2COc3c(cccc3-c3cc(N4CCOCC4)c(C(=O)O)cc3F)C2)cc1C1CC1 [Compound 18-2, 4-[3-(2-Chloro-5-cyclopropyl-4-methoxybenzoyl)-2,4-dihydro-1,3-benzoxazin-8-yl]-5-fluoro-2-morpholin-4-ylbenzoic acid]	5.8
COc1cc(Cl)c(C(=O)N2COc3c(cccc3-c3cc(N4CCOCC4)c(C(=O)O)cc3F)C2)cc1C#N [Compound 18-3, 4-[3-(2-Chloro-5-cyano-4-methoxybenzoyl)-2,4-dihydro-1,3-benzoxazin-8-yl]-5-fluoro-2-morpholin-4-ylbenzoic acid]	14
